# From US20230165821A1, “ELAFIBRANOR FOR THE TREATMENT OF PRIMARY SCLEROSING CHOLANGITIS” (Genfit, priority 2020, published 2023)
# “Also recorded” adds a separate entry of the source.
# Assays:
# Format in all cases: in vivo, human
# healthy male volunteers = assay: Phase I clinical trial, tolerability and safety
# Procedure: (§1) This clinical trial has been performed to assess the tolerability, safety and reduction of different parameters, including alkaline phosphatase of once-a-day administrations of oral doses of elafibranor (ELA) in […]. This was a phase I, single-center, double-blind, placebo-controlled, randomised, ascending multiple-dose study in healthy male volunteers. Doses of 40 mg or 60 mg once-a-day during 14 days were tested.
# (§2) Thirty 19-40 years old Caucasian male volunteers were included: 9 for each treatment group and 12 for the placebo group.
# (§3) The compound used was ELA, supplied in hard gelatin capsules dosed at 10 mg. Dose per administration was of 40 mg or 60 mg. Administration was repeated once-a-day, with an oral administration around 8 a.m. with 200 mL tap water, in sitting position, in fasting conditions, from day 1 to day 14. Matching placebo was presented as identical capsules.
# total bilirubin level = assay: Phase I clinical trial, assessment of bilirubin level; conditions: for Measure of total bilirubin Day 15 change from the baseline: fasting, n=9
# From the text: (§4) Patients with clinical PSC have elevated alkaline phosphatase (ALP) and bilirubin levels. […] Some studies underline also elevated levels of bilirubin (Denau, M.R. et al., The Natural History of Primary Sclerosing Cholangitis in 781 Children: A Multicenter, International Collaboration. Hepatology (2017), Vol. 66, N° 2 pp518-527).
# as §1, §2, §3
# [1] = test system: alkaline phosphatase (ALP) level; assay: Phase I clinical trial, assessment of ALP level; conditions: for Measure of ALP Day 15 change from the baseline: fasting, n=9, baseline day 1
# From the text: as §4, §1, §2, §3
# Alkaline phosphatase level was assessed at baseline (day 1) and day 15.
# [2] = ELA 40 mg/day oral once-a-day for 14 days
# [3] = ELA 60 mg/day oral once-a-day for 14 days
smiles,measurement,setting,value
"CSc1ccc(C(=O)C=Cc2cc(C)c(OC(C)(C)C(=O)O)c(C)c2)cc1 [ELA, 2-(2,6-dimethyl-4-{3-[4-(methylsulfanyl)phenyl]-3-oxopropen-1-yl}phenoxy)-2-methylpropanoic acid]",Serious adverse events,"healthy male volunteers; 40 mg or 60 mg once-a-day, 14 days, oral",No serious adverse events were reported
same,Clinical tolerance,"healthy male volunteers; repeated administration at either dose (40 mg or 60 mg), healthy volunteers",good clinical tolerance
same,Measure of total bilirubin Day 15 change from the baseline,total bilirubin level; [2],-2.07
same,Measure of total bilirubin Day 15 change from the baseline,total bilirubin level; [3],-2.46
same,Total bilirubin levels compared to placebo group,"total bilirubin level; both doses (40 mg and 60 mg), once-a-day, 14 days",improved total bilirubin levels compared to placebo group
same,Measure of ALP Day 15 change from the baseline,[1]; [2],-8.3
same,Measure of ALP Day 15 change from the baseline,[1]; [3],-20.7
same,Alkaline phosphatase levels compared to placebo group,"[1]; both doses (40 mg and 60 mg), once-a-day, 14 days, listed as elafibranor",improved alkaline phosphatase levels compared to placebo group; also recorded: decreased mean ALP compared with placebo
